In US10597388B2, “Pyridazinone herbicides” (FMC CORPORATION, priority 2014, dated 2020):

How the values were obtained:
Test in all cases: Test D controlled growth environment herbicide test, pre- and postemergence
Format in all cases: in vivo
[1] = tested on: ryegrass, Italian (Italian ryegrass, Lolium multiflorum)
Procedure, shortened: (§1)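 Rating is visual, 0–100 scale (100 = complete control), made against untreated plants 14–21 d after treatment in controlled growth conditions. Postemergence sprays went onto 1- to 4-leaf plants in peat medium; preemergence sprays onto silt loam after sowing; formulation included a surfactant.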

[2] = tested on: oat, wild (wild oat, Avena fatua)
Procedure, shortened: as §1

[3] = tested on: Russian thistle (Salsola kali)
Procedure, shortened: as §1

[4] = tested on: wheat, winter (winter wheat, Triticum aestivum)
Procedure, shortened: as §1

[5] = tested on: deadnettle (henbit deadnettle, Lamium amplexicaule)
Procedure, shortened: as §1

[6] = tested on: wheat, spring (spring wheat, Triticum aestivum)
Procedure, shortened: as §1

[7] = tested on: oilseed rape (Brassica napus)
Procedure, shortened: as §1

[8] = tested on: speedwell (bird's-eye speedwell, Veronica persica)
Procedure, shortened: as §1

[9] = tested on: foxtail, green (green foxtail, Setaria viridis)
Procedure, shortened: as §1

[10] = tested on: chickweed (common chickweed, Stellaria media)
Procedure, shortened: as §1

[11] = tested on: mustard, wild (wild mustard, Sinapis arvensis)
Procedure, shortened: as §1

[12] = tested on: blackgrass (Alopecurus myosuroides)
Procedure, shortened: as §1

[13] = tested on: bromegrass, downy (downy bromegrass, Bromus tectorum)
Procedure, shortened: as §1

[14] = Postemergence, 31 g ai/ha, scale 0 to 100 (0 no effect, 100 complete control)
[15] = Postemergence, 125 g ai/ha, visual rating on scale 0 (no effect) to 100 (complete control), 14 to 21 d
[16] = Postemergence, 250 g ai/ha, scale 0 to 100 (0 no effect, 100 complete control)
[17] = Preemergence, 62 g ai/ha, scale 0 to 100 (0 no effect, 100 complete control)
[18] = Preemergence, 125 g ai/ha, scale 0 to 100 (0 no effect, 100 complete control)
[19] = Preemergence, 250 g ai/ha, scale 0 to 100, 0 no effect, 100 complete control
[20] = postemergence, 62 g ai/ha, scale 0 to 100, 0 no effect, 100 complete control

SMILES: Cc1nn(C)c(=O)c(-c2c(C)sc3ccc(Br)cc23)c1O [Compound 22]
- Ryegrass, Italian plant response rating [1, 14]: 75
- Plant response rating, Ryegrass, Italian [1, 15]: 85
- Plant response rating, Ryegrass, Italian [1, 16]: 90
- Plant response rating (scale of 0 to 100), Ryegrass, Italian ([1]; Preemergence, 31 g ai/ha): 85
- Plant response rating, Ryegrass, Italian [1, 17]: 90
- Plant response rating, Ryegrass, Italian [1, 18]: 100
- Plant response rating, Ryegrass, Italian [1, 19]: 100
- Plant response rating, Ryegrass, Italian [1, 20]: 80
- Oat, Wild plant response rating [2, 14]: 65
- Plant response rating, Oat, Wild [2, 15]: 85
- Plant response rating, Oat, Wild [2, 16]: 100
- Plant response rating (scale of 0 to 100), Oat, Wild ([2]; Preemergence, 31 g ai/ha): 30
- Plant response rating, Oat, Wild [2, 17]: 55
- Plant response rating, Oat, Wild [2, 18]: 70
- Plant response rating, Oat, Wild [2, 19]: 95
- Plant response rating, Oat, Wild [2, 20]: 85
- Russian Thistle plant response rating [3, 14]: 65
- Plant response rating, Russian Thistle [3, 15]: 75
- Plant response rating, Russian Thistle [3, 16]: 85
- Plant response rating (scale of 0 to 100), Russian Thistle ([3]; Preemergence, 31 g ai/ha): 0
- Plant response rating, Russian Thistle [3, 17]: 0
- Plant response rating, Russian Thistle [3, 18]: 0
- Plant response rating, Russian Thistle [3, 19]: 20
- Plant response rating, Russian Thistle [3, 20]: 70
- Wheat, Winter plant response rating [4, 14]: 5
- Plant response rating, Wheat, Winter [4, 15]: 15
- Plant response rating, Wheat, Winter [4, 16]: 15
- Plant response rating (scale of 0 to 100), Wheat, Winter ([4]; Preemergence, 31 g ai/ha): 0
- Plant response rating, Wheat, Winter [4, 17]: 0
- Plant response rating, Wheat, Winter [4, 18]: 0
- Plant response rating, Wheat, Winter [4, 19]: 5
- Plant response rating, Wheat, Winter [4, 20]: 5
- Deadnettle plant response rating [5, 14]: 10
- Plant response rating, Deadnettle [5, 15]: 45
- Plant response rating, Deadnettle [5, 16]: 70
- Plant response rating (scale of 0 to 100), Deadnettle ([5]; Preemergence, 31 g ai/ha): 0
- Plant response rating, Deadnettle [5, 17]: 0
- Plant response rating, Deadnettle [5, 18]: 15
- Plant response rating, Deadnettle [5, 20]: 10
- Wheat, Spring plant response rating [6, 14]: 5
- Plant response rating, Wheat, Spring [6, 15]: 10
- Plant response rating, Wheat, Spring [6, 16]: 15
- Plant response rating (scale of 0 to 100), Wheat, Spring ([6]; Preemergence, 31 g ai/ha): 0
- Plant response rating, Wheat, Spring [6, 17]: 0
- Plant response rating, Wheat, Spring [6, 18]: 10
- Plant response rating, Wheat, Spring [6, 19]: 25
- Plant response rating, Wheat, Spring [6, 20]: 10
- Oilseed Rape plant response rating [7, 14]: 30
- Plant response rating, Oilseed Rape [7, 15]: 95
- Plant response rating, Oilseed Rape [7, 16]: 100
- Plant response rating (scale of 0 to 100), Oilseed Rape ([7]; Preemergence, 31 g ai/ha): 0
- Plant response rating, Oilseed Rape [7, 17]: 0
- Plant response rating, Oilseed Rape [7, 18]: 0
- Plant response rating, Oilseed Rape [7, 19]: 75
- Plant response rating, Oilseed Rape [7, 20]: 30
- Speedwell plant response rating [8, 14]: 60
- Plant response rating, Speedwell [8, 15]: 65
- Plant response rating, Speedwell [8, 16]: 100
- Plant response rating (scale of 0 to 100), Speedwell ([8]; Preemergence, 31 g ai/ha): 0
- Plant response rating, Speedwell [8, 17]: 0
- Plant response rating, Speedwell [8, 18]: 50
- Plant response rating, Speedwell [8, 19]: 100
- Plant response rating, Speedwell [8, 20]: 60
- Foxtail, Green plant response rating [9, 14]: 15
- Plant response rating, Foxtail, Green [9, 15]: 70
- Plant response rating, Foxtail, Green [9, 16]: 75
- Plant response rating (scale of 0 to 100), Foxtail, Green ([9]; Preemergence, 31 g ai/ha): 0
- Plant response rating, Foxtail, Green [9, 17]: 0
- Plant response rating, Foxtail, Green [9, 18]: 0
- Plant response rating, Foxtail, Green [9, 19]: 20
- Plant response rating, Foxtail, Green [9, 20]: 45
- Chickweed plant response rating [10, 14]: 85
- Plant response rating, Chickweed [10, 15]: 98
- Plant response rating, Chickweed [10, 16]: 100
- Plant response rating (scale of 0 to 100), Chickweed ([10]; Preemergence, 31 g ai/ha): 95
- Plant response rating, Chickweed [10, 17]: 100
- Plant response rating, Chickweed [10, 18]: 100
- Plant response rating, Chickweed [10, 19]: 100
- Plant response rating, Chickweed [10, 20]: 95
- Mustard, Wild plant response rating [11, 14]: 90
- Plant response rating, Mustard, Wild [11, 15]: 100
- Plant response rating, Mustard, Wild [11, 16]: 100
- Plant response rating (scale of 0 to 100), Mustard, Wild ([11]; Preemergence, 31 g ai/ha): 5
- Plant response rating, Mustard, Wild [11, 17]: 65
- Plant response rating, Mustard, Wild [11, 18]: 85
- Plant response rating, Mustard, Wild [11, 19]: 95
- Plant response rating, Mustard, Wild [11, 20]: 95
- Blackgrass plant response rating [12, 14]: 15
- Plant response rating, Blackgrass [12, 15]: 45
- Plant response rating, Blackgrass [12, 16]: 70
- Plant response rating (scale of 0 to 100), Blackgrass ([12]; Preemergence, 31 g ai/ha): 45
- Plant response rating, Blackgrass [12, 17]: 45
- Plant response rating, Blackgrass [12, 18]: 55
- Blackgrass plant response rating [12, 19]: 75
- Plant response rating, Blackgrass [12, 20]: 20
- Bromegrass, Downy plant response rating [13, 14]: 10
- Plant response rating, Bromegrass, Downy [13, 15]: 25
- Plant response rating, Bromegrass, Downy [13, 16]: 25
- Plant response rating (scale of 0 to 100), Bromegrass, Downy ([13]; Preemergence, 31 g ai/ha): 0
- Plant response rating, Bromegrass, Downy [13, 17]: 5
- Plant response rating, Bromegrass, Downy [13, 18]: 25
- Plant response rating, Bromegrass, Downy [13, 19]: 80
- Plant response rating, Bromegrass, Downy [13, 20]: 10
